According to patent US20040157240A1, “Diagnostic assay and related products” (The Brigham & Women's Hospital, Inc., priority 2002, published 2004):

What was measured:
[1] = system: β2-adrenergic receptor gene; conditions: cited from earlier work
[2] = Adult Study (Forest study): 8-week clinical trial of inhaled flunisolide vs. standard inhaled corticosteroid therapy, change in FEV1; type: in vivo, human; conditions: on inhaled corticosteroids, evaluated at 8 weeks; mean ± standard deviation; N 470
From the text: The Forest study (also known as the Adult Study) was an 8 week clinical trial used to compare the effect of once daily high dose inhaled flunisolide vs. “standard inhaled corticosteroid therapy” (performed by Forest Pharmaceuticals). […] Of these participants, 7% were African American, 3% were Hispanic and 2% were other. As 88% of these participants were Caucasian, analyses focus on this group. Additionally, females accounted for 58.5% of the participants.
The Adult Study was a multicenter 8-week randomized clinical trial comparing the effect of once-daily high-dose inhaled flunisolide vs. standard inhaled corticosteroid therapy. Inclusion criteria were a history of asthma, >12% improvement in FEV1 with albuterol and using inhaled steroids at randomization. Exclusion criteria were non-asthma pulmonary disease, smoking (≧10 pack-years) and recent asthma exacerbations requiring systemic steroids. Subjects were phoned weekly and had spirometry at 4 and 8 weeks.

[3] = ACRN (SOCS/SLIC) 6-week run-in period on inhaled triamcinolone, change in FEV1; type: in vivo, human; conditions: on inhaled corticosteroids, evaluated at 6 weeks; mean ± standard deviation; N 336
From the text: Two completed trials conducted by the ACRN (Asthma Clinical Research Network), the salmeterol or corticosteroids (SOCS) (54) and salmeterol±inhaled corticosteroids (SLIC)
Details regarding the entry criteria, run-in period and randomization have been published with the primary trial results (54, 55). Of the 339 subjects eligible for randomization, 336 had DNA available; 66.7% of these were Caucasian, forming the basis of the second replication sample.
(§1) The primary outcome measure of the association analyses was percent change in FEV1 over time in response to inhaled steroids, defined as the FEV1 difference from baseline to eight weeks for the Adult Study and CAMP, and to six weeks in ACRN, divided by the baseline value.

[4] = CAMP (Childhood Asthma Management Program): clinical trial of inhaled budesonide vs. nedocromil vs. placebo, change in FEV1; type: in vivo, human
From the text: The Childhood Asthma Management Program (CAMP) was a randomized, double-masked, long term clinical trial testing the safety and efficacy of inhaled budesonide vs. nedocromil vs. placebo (27). The mean duration of follow-up was 4 years (28). 311 children (males and females for a variety of race and age groups) were randomized to the steroid group, with a mean improvement of 6.8% in their FEV1 at one year. Of these, 65% were Caucasian. These formed the basis for our replication sample.
CAMP is a multicenter, randomized, double-blinded clinical trial testing the safety and efficacy of inhaled budesonide vs. nedocromil vs. placebo over a mean of 4.3 years. Trial design and methodology have been published (27, 28). The replication sample subjects were the Caucasian CAMP children randomized to the steroid group, evaluated at their 2 month follow-up visit.
as §1

CC(C)(C)NCC(O)c1ccc(O)c(CO)c1 (stereo not drawn) [albuterol]
acute bronchodilator response ([1]; Arg/Arg children than Gly/Gly children): more likely
peak expiratory flow rates ([1]; regular utilization, Arg/Arg at position 16, compared to Arg/Arg receiving prn and Gly/Gly): significantly decrease

CC1(C)O[C@@H]2C[C@H]3[C@@H]4C[C@H](F)C5=CC(=O)C=C[C@]5(C)[C@H]4[C@@H](O)C[C@]3(C)[C@]2(C(=O)CO)O1 [Flunisolide]
Mean Change in FEV1 [2]: 7.0 ± 19.3%

C[C@]12C=CC(=O)C=C1CC[C@H]1[C@@H]3C[C@@H](O)[C@](O)(C(=O)CO)[C@@]3(C)C[C@H](O)[C@@]12F [Triamcinolone]
Mean Change in FEV1 [3]: 6.7 ± 19.7%

CCCC1O[C@@H]2C[C@H]3[C@@H]4CCC5=CC(=O)C=C[C@]5(C)[C@H]4[C@@H](O)C[C@]3(C)[C@]2(C(=O)CO)O1 (stereo partly drawn) [Budesonide]
mean improvement in FEV1 ([4]; at one year, 311 children randomized to the steroid group): 6.8%
Mean Change in FEV1 ([4]; on inhaled corticosteroids, evaluated at 8 weeks, mean ± standard deviation, N 311): 8.3 ± 14.1%
